Patent US12371464B2, “Polypeptides and uses thereof” (MEDIMMUNE LIMITED, priority 2020, dated 2025)
Numbered stars: 1 amine (or outer) side, 2 acyl side, 3 side chain; on linkers, the order of the positions; unused ones are H or OH. Bridge positions count the residues as written; N and C are the ends. Side chains are listed from the residue outwards. Peptide text beside a SMILES is read from it. * marks the point of attachment. C20 diacid = O=C(O)CCCCCCCCCCCCCCCCCCC(=O)*; γGlu = O=C(O)[C@H](CCC(=O)[*:2])N[*:1]

How the values were obtained:
lean rats = test: Rat acute food intake study; type: in vivo, Sprague Dawley rats; conditions: 20 nmol/kg subcutaneously
Method: Male Sprague Dawley rats were obtained from Taconic Denmark, ApS at approximately 7 weeks of age. . . . Rats were implanted with a microchip for identification, housed 4/cage with enrichment, free access to food and water, and allowed one week acclimatisation while non-invasive characterization was performed. Rats were on a 12:12 light:dark cycle that switches at 1 pm:1 am. Food intake was monitored via the HM2 system (Lafayette Instrument) that allows for monitoring in a home cage. As each rat enters an access tunnel to feed, an IR beam is broken, and the implanted microchip is read. Resulting changes to food weight is then assigned to the specific animal. Social order has shown no impact to overall feeding patterns and amounts.
Rats were sorted into groups based on Day-1 body weight and 24-hour accumulated food intake (n=7 per group). On Day 0 rats were weighed, then fasted for 6 hours. Thirty (30) minutes prior to the reintroduction of food, rats were dosed subcutaneously (5 ml/kg) with 20 nmol/kg of test compound or 60 nmol/kg peptide 1 (pramlintide) diluted in an appropriate vehicle, after which food was returned, and lights went out. Automated food intake was monitored for the following 3 days, and rats were weighed once per day.
Food intake per rat was batched into 1-hour intervals and integrated into Gubra's GubraView data management system. Discrete food intake data was exported into MS Excel from which cumulative food intake data was generated. Cumulative food intake data was then transposed into GraphPad Prism (v8.0.1) for analysis of dark period feeding

[1] = molecular target: T1, rat calcitonin receptor (rat CTR) (Rattus norvegicus, UniProt P32214); test: cAMP production in HEK cells with stable recombinant expression of rat calcitonin receptor (rat CTR); type: cell-based; conditions: cAMP HTRF, assay buffer with 0.1% BSA, 30 minutes
T1 construct: expressed in transfected cells
T1 sequence (P32214 25-516): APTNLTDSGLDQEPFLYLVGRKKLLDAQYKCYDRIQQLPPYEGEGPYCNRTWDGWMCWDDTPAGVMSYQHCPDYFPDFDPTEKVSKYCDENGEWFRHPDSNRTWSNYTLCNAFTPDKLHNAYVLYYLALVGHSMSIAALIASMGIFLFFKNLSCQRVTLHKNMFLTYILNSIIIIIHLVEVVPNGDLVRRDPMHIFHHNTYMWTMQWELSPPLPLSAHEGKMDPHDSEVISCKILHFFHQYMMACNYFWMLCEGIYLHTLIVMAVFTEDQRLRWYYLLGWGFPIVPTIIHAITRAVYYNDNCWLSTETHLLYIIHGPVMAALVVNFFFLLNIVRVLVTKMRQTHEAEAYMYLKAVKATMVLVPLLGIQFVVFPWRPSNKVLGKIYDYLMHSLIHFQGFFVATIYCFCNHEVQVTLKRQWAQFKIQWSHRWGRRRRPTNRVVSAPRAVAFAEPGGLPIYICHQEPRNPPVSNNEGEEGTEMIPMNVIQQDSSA
Method: The functional activities of lipidated pramlintide analogue peptides, such as cAMP production, were tested in 1321N1 cell line with stable recombinant expression of human calcitonin receptor (hCTR) or human amylin receptor (calcitonin receptor co-expressed with receptor activity modifying protein, RAMP3) (hAMYR3) or HEK cells with stable recombinant expression of rat calcitonin receptor (rat CTR) or rat amylin receptor (calcitonin receptor co-expressed with receptor activity modifying protein, RAMP3) (Rat AMYR3). […]
(§1) The test peptide stock was prepared in DMSO and diluted in assay buffer to reach stated concentrations and transferred in duplicates into a 384-black shallow well microtitre assay plate (Corning #3676). Cells were added to the assay plate, incubated at room temperature for 30 minutes and the CAMP level measured using CAMP dynamic 2 HTRF kit (Cisbio, Cat #62AM4PEJ), following the two step protocol as per manufacturer's recommendations. The plates were read on an Envision (Perkin Elmer) using excitation wavelength of 320 nm and emission wavelengths of 620 nm & 665 nm.
Data was transformed to % Delta F as described in the manufacturer's guidelines and analyzed as percent activation of maximal amylin or calcitonin effect by 4-parameter logistic fit to determine EC50 values. […]

[2] = molecular target: T2, human calcitonin receptor (hCTR) (Homo sapiens, UniProt P30988); test: cAMP production in 1321N1 cells with stable recombinant expression of human calcitonin receptor (hCTR); type: cell-based; conditions: 1321N1 cells expressing human calcitonin receptor
T2 construct: expressed in transfected cells
T2 sequence (P30988 25-474): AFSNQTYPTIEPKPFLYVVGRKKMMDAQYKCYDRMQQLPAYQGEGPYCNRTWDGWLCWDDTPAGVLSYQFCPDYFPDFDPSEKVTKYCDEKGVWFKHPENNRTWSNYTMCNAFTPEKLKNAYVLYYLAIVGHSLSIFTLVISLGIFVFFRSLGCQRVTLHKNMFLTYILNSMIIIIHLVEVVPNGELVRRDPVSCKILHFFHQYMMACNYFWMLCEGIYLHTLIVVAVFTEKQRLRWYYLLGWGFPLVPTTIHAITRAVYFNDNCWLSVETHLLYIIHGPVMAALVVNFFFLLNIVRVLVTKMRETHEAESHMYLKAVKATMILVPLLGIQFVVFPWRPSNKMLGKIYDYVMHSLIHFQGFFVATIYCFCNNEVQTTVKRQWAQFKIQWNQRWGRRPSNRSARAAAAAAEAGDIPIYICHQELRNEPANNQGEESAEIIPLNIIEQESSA
Method: (§2) The functional activities of lipidated pramlintide analogue peptides, such as cAMP production, were tested in 1321N1 cell line with stable recombinant expression of human calcitonin receptor (hCTR) or human amylin receptor (calcitonin receptor co-expressed with receptor activity modifying protein, RAMP3) (hAMYR3) or HEK cells with stable recombinant expression of rat calcitonin receptor (rat CTR) or rat amylin receptor (calcitonin receptor co-expressed with receptor activity modifying protein, RAMP3) (Rat AMYR3).
(§3) Cryopreserved cell stock was thawed rapidly in a water-bath, suspended in assay buffer (0.1% BSA (Sigma #A3059) in HBSS (Sigma #H8264) with 25 mM HEPES, pH 7.4 and containing 0.5 mM IB MX (Sigma #17018)) and spun at 240×g for 5 minutes. Cells were re-suspended in assay buffer at a batch-dependent optimized concentration (e.g. hCTR cells at 0.125×10^5 cells/mL, hAMYR3 cells at 0.125×10^5 cells/mL, rat CTR cells at 1×10^5 cells/mL, rat AMYR3 at 2×10^5 cells/mL).
as §1
(§4) Data was transformed to % Delta F as described in the manufacturer's guidelines and analyzed as percent activation of maximal amylin or calcitonin effect by 4-parameter logistic fit to determine EC50 values. The selectivity of a peptide to hAMYR vs hCTR is defined as a ratio of EC50 values at the two receptors.

in vivo = conditions: male, Sprague-Dawley, rat, 20 nmol/kg
Method: PK studies were performed to determine the half-life (T1/2) of test peptides. T1/2 describes the time taken for the maximum plasma concentration (Cmax) of a test substance to halve its steady-state concentration when in circulation.
The animals were 6-8 weeks old with body weights of 200-300 g on the dosing date. The animals were housed in a 12-hour light/12-hour dark cycle environment and were fasted overnight before dosing. The body weight of the animals were recorded before dosing, 24 h and 48 h post dosing.
Test articles were administered at 20 nmol/kg. Blood samples were collected from each animal via Jugular vein.
The blood samples were transferred into eppendorf low binding tube containing K2EDTA. Above 0.150 mL blood were collected at each time point. Blood samples were centrifuged at 4,000 g for 5 minutes at 4° C. to obtain plasma. The plasma samples were stored frozen at −75±15° C. until analysis.
Concentrations of the test articles in the plasma samples were analyzed using a LC-MS/MS method. […] The pharmacokinetic parameters of test articles were calculated using a non-compartmental approach with Phoenix™ WinNonlin®6.1.
The following pharmacokinetic parameters were calculated, whenever possible from the plasma concentration versus time data: • IV administration: T1/2, C0, AUClast, AUCinf, MRTinf, CI, Vss, Number of Points for Regression. • SC administration: Tmax, Cmax, AUClast, AUCinf, MRTinf, F, Number of Points for Regression.

[3] = molecular target: T3, human amylin receptor (calcitonin receptor co-expressed with receptor activity modifying protein, RAMP3) (hAMYR3) (Homo sapiens, UniProt O60896+P30988); test: cAMP production in 1321N1 cells with stable recombinant expression of human amylin receptor (hAMYR3); type: cell-based; conditions: cAMP production, 1321N1 cells expressing human amylin3 receptor
T3 construct: expressed in transfected cells
T3 sequence (P30988 25-474): T2 sequence (P30988 25-474)
T3 sequence (O60896 24-148 partner): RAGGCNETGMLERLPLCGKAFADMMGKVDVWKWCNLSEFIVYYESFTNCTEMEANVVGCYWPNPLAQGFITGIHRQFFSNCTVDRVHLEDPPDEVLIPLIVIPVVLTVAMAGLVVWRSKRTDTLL
Method: as §2, §3, §1, §4

Row | EC50 [1] | EC50 [2] | half-life (in vivo; iv) | half-life (in vivo; sc) | EC50 [3] | SMILES | Cummulative food intake (% vehicle treated intake) At 12 h (lean rats) | Cummulative food intake (% vehicle treated intake) At 24 h (lean rats) | Cummulative food intake (% vehicle treated intake) At 48 h (lean rats)
1 | 22.6 nM | 7.65 nM | 14.9 h | 20.3 h | 0.703 nM | CC[C@H](C)[C@H](NC(=O)[C@H](C)NC(=O)[C@@H]1CCCN1C(=O)[C@H](Cc1ccccc1)NC(=O)[C@H](CC(N)=O)NC(=O)[C@@H]1CCCN1C(=O)[C@H](CO)NC(=O)[C@H](CO)NC(=O)[C@H](Cc1c[nH]cn1)NC(=O)[C@@H](NC(=O)[C@H](CC(C)C)NC(=O)[C@H](Cc1ccccc1)NC(=O)[C@H](CC(N)=O)NC(=O)[C@H](C)NC(=O)[C@H](CC(C)C)NC(=O)[C@H](CCCNC(=N)N)NC(=O)[C@H](CCC(N)=O)NC(=O)[C@@H](NC(=O)[C@H](C)NC(=O)[C@@H]1CSSC[C@H](NC(=O)[C@@H](N)CCCCNC(=O)CC[C@H](NC(=O)CC[C@H](NC(=O)CCCCCCCCCCCCCCCCCCC(=O)O)C(=O)O)C(=O)O)C(=O)N[C@@H](CC(N)=O)C(=O)N[C@@H]([C@@H](C)O)C(=O)N[C@@H](C)C(=O)N[C@@H]([C@@H](C)O)C(=O)N1)[C@@H](C)O)C(C)C)C(=O)N[C@@H](CC(C)C)C(=O)N[C@@H](CO)C(=O)N1CCC[C@H]1C(=O)N[C@H](C(=O)N[C@@H](CC(N)=O)C(=O)N[C@H](C(=O)NCC(=O)N[C@@H](CO)C(=O)N[C@@H](CC(N)=O)C(=O)N[C@H](C(=O)N[C@@H](Cc1ccc(O)cc1)C(N)=O)[C@@H](C)O)C(C)C)[C@@H](C)O [Peptide 115] (H-K([γGlu-γGlu-C20 diacid])CNTATCATQRLANFLVHSSPNFPAILSPTNVGSNTY-NH2; disulfide 2-7; N-terminus assumed) | 42.4 % vehicle treated intake | 41.3 % vehicle treated intake | 52.2 % vehicle treated intake
2 | 4.87 nM | 15.8 nM | 13 h | 21.6 h | 1.32 nM | CC[C@H](C)[C@H](NC(=O)[C@@H]1CCCN1C(=O)CNC(=O)[C@H](Cc1ccccc1)NC(=O)[C@H](CC(N)=O)NC(=O)[C@H](CC(N)=O)NC(=O)[C@H](CO)NC(=O)[C@H](CO)NC(=O)[C@H](Cc1c[nH]cn1)NC(=O)[C@@H](NC(=O)[C@H](CC(C)C)NC(=O)[C@H](Cc1ccccc1)NC(=O)[C@H](CC(N)=O)NC(=O)[C@H](C)NC(=O)[C@H](CC(C)C)NC(=O)[C@H](CCCNC(=N)N)NC(=O)[C@H](CCC(N)=O)NC(=O)[C@@H](NC(=O)[C@H](C)NC(=O)[C@@H]1CSSC[C@H](NC(=O)[C@@H](N)CCCCNC(=O)CC[C@H](NC(=O)CC[C@H](NC(=O)CCCCCCCCCCCCCCCCCCC(=O)O)C(=O)O)C(=O)O)C(=O)N[C@@H](CC(N)=O)C(=O)N[C@@H]([C@@H](C)O)C(=O)N[C@@H](C)C(=O)N[C@@H]([C@@H](C)O)C(=O)N1)[C@@H](C)O)C(C)C)C(=O)N[C@@H](CC(C)C)C(=O)N1CCC[C@H]1C(=O)N1CCC[C@H]1C(=O)N[C@H](C(=O)N[C@@H](CC(N)=O)C(=O)N[C@H](C(=O)NCC(=O)N[C@@H](CO)C(=O)N[C@@H](CCCNC(=N)N)C(=O)N[C@H](C(=O)N[C@@H](Cc1ccc(O)cc1)C(N)=O)[C@@H](C)O)C(C)C)[C@@H](C)O [Peptide 114] (H-K([γGlu-γGlu-C20 diacid])CNTATCATQRLANFLVHSSNNFGPILPPTNVGSRTY-NH2; disulfide 2-7; N-terminus assumed) | 42.3 % vehicle treated intake | 45.1 % vehicle treated intake | 53.8 % vehicle treated intake
